In patent US12448369B2 (Edgewise Therapeutics, Inc., priority 2023, dated 2025):
Marks after values point to notes of the source that are not given here.

Assays:
[1] = system: Porcine atria myofibrils (atrial myosin ATPase); assay: Myofibril ATPase assay, porcine atria myofibrils; format: biochemical; details: porcine atria myofibrils
Procedure, shortened: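 Coupled PK-LDH readout, NADH loss at 340 nm, kinetic 75 min. Porcine atria myofibrils, pCa buffer (PIPES/CaCl2/EGTA, pH 7.0). Slopes (mAU/min) normalized to vehicle = 100%, 4-parameter fit; Y75 or Y125 reported.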

[2] = system: Rabbit Psoas myofibrils (skeletal myosin ATPase); assay: Myofibril ATPase assay, rabbit psoas (skeletal) myofibrils; format: biochemical; details: rabbit psoas myofibrils
Procedure, shortened: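 Readout: A340 decline from NADH oxidation, PK/LDH-coupled to ADP release; kinetic reads over 75 min. Buffer: pCa (PIPES, CaCl2, EGTA), pH 7.0. Linear-regression slopes vs vehicle, 4PL fit; reported as concentration giving 75% (Y75) or 125% (Y125) of vehicle activity.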

[3] = molecular target: T1, Porcine ventricle myofibrils (ventricular myosin ATPase) (Sus scrofa, UniProt P79293); assay: Myofibril ATPase assay, porcine ventricle myofibrils; format: biochemical, porcine (Yucatan minipigs); details: porcine ventricle myofibrils
T1 construct: Myofibrils from porcine cardiac muscle was isolated from the left ventricle of Yucatan minipigs; tissue Exemplar Genetics; host or cells: left ventricle of Yucatan minipigs, myofibrils prepared in house
T1 sequence (P79293 whole entry): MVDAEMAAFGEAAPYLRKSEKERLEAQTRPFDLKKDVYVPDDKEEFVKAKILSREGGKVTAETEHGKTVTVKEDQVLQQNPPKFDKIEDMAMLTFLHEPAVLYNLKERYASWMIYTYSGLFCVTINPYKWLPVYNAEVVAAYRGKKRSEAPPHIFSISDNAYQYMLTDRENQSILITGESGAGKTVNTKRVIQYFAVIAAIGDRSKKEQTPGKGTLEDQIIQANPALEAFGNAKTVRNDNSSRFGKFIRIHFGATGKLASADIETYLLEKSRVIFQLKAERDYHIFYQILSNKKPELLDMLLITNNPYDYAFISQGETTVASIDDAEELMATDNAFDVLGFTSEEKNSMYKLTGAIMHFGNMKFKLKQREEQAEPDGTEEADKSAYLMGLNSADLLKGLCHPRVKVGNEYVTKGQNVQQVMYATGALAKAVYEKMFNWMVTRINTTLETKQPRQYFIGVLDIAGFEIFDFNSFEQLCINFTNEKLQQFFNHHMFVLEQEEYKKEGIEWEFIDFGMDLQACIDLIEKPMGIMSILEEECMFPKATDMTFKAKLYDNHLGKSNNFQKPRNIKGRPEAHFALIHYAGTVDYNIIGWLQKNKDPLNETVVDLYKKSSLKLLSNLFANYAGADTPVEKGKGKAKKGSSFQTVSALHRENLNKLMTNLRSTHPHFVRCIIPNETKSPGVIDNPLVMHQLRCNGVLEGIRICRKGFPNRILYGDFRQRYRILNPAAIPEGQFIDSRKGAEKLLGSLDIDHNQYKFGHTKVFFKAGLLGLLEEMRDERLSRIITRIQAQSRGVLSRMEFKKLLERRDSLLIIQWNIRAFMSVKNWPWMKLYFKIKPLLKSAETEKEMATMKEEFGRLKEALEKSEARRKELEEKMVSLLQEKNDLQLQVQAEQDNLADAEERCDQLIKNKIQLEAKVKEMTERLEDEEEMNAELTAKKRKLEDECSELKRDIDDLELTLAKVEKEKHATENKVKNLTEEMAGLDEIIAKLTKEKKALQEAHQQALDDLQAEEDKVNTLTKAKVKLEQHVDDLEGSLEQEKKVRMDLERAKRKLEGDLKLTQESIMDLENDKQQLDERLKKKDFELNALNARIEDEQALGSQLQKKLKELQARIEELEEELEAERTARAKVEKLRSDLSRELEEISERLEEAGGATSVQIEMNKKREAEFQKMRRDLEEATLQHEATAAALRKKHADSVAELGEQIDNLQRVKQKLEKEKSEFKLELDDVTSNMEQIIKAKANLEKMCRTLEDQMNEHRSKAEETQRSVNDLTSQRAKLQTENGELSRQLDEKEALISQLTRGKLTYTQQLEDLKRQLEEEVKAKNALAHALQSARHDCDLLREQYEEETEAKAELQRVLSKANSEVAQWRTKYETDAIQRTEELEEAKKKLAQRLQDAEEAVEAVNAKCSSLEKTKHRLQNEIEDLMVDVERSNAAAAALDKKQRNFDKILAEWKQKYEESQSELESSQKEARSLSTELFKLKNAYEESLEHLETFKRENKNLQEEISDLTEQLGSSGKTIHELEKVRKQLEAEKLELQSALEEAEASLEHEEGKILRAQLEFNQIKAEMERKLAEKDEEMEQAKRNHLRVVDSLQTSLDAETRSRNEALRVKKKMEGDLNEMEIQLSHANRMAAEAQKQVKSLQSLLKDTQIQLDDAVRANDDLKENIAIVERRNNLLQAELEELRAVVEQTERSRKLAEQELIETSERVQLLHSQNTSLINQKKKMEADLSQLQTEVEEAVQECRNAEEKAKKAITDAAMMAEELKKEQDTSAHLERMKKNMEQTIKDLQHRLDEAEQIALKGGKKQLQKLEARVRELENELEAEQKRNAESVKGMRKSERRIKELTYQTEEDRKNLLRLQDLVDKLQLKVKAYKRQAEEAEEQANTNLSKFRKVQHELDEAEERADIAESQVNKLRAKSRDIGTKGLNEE
Procedure, shortened: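 Myofibrils isolated from Yucatan minipig left ventricle; coupled PK/LDH NADH assay, pCa buffer pH 7.0, kinetic A340 reads over 75 min. Vehicle-normalized slopes fit 4PL; Y75/Y125 derived.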

[4] = Y75 value (75% activity relative to no compound)
[5] = ‡ Y125 value, not a Y75 value (125% activity relative to no compound)

Structure (SMILES) | Atrial EC25 ([1]; Y75 value (no ‡ mark)) [µM] | Skeletal EC25 ([2]; Y75 value (no ‡ mark)) [µM] | Ventricular EC25 ([3]; Y75 value (no ‡ mark)) [µM] | Atrial EC25 [1, 4] [µM] | Skeletal EC25 ([2]; Y75 value) [µM] | Ventricular EC25 ([3]; Y75 value) [µM] | also measured
Cc1c(O)ccc2[nH]c(=O)c(CC(=O)N[C@H](C)c3ncc(F)cc3F)cc12 (single isomer, unassigned) [compound 77] | 100.00 | 47.84 | 100.00 | – | – | – | –
Cc1nccc2[nH]c(=O)c(C3(C(=O)N[C@@H](C)c4ccc(C#N)cc4F)CC3)c(C)c12 (single isomer, unassigned) [compound 3512] | – | – | – | 1.65 | 0.71 | – | Ventricular EC25 (Y125 value, marked ‡) ([3]; Y125 value, not a Y75 value): 100.00‡ μM
Cc1cc([C@H](C)NC(=O)Cc2c(C)c3cc(F)ccc3[nH]c2=O)ncc1F [compound 1061] | 2.49 | 100.00 | 100.00 | – | – | – | –
Cc1nccc2[nH]c(=O)c(CC(=O)N[C@H](C)c3ccc(C#N)cc3F)c(F)c12 [compound 148] | – | – | – | 1.99 | 2.55 | 3.02 | –
CC(C(=O)N[C@@H](C)c1ccc(F)cc1F)c1cc2ccccc2[nH]c1=O (stereo partly drawn) [compound 134] | 100.00 | 7.99 | 100.00 | – | – | – | –
Cc1c(CC(=O)N[C@H](C)c2ncc(C#N)cc2F)c(=O)[nH]c2ccc(F)c(C#N)c12 [compound 31] | 0.10 | 0.06 | 0.16 | – | – | – | –
Cc1c(CC(=O)N[C@@H](CO)c2ccc(C#N)cc2F)c(=O)[nH]c2ccnc(C#N)c12 (single isomer, unassigned) [compound 242] | – | – | – | 0.09 | 0.02 | 0.52 | –
Cc1c(CC(=O)N[C@@H](C)c2ccc(F)cc2F)c(=O)[nH]c2ccccc12 [compound 135] | 0.10 | 0.03 | 0.40 | – | – | – | –
C[C@@H](NC(=O)C(F)(F)c1cc2c(F)c(F)ccc2[nH]c1=O)c1cc(C#N)ccn1 (single isomer, unassigned) [compound 2557] | 3.66 | 6.04 | 7.27 | – | – | – | –
Cc1c(C2(C(=O)N[C@@H](C)c3nccc(C#N)n3)CC2)c(=O)[nH]c2ccc(F)cc12 (single isomer, unassigned) [compound 4842] | 100.00 | 37.46 | 100.00 | – | – | – | –
Cc1cc(C#N)nnc1[C@@H](C)NC(=O)Cc1c(C)c2cc(F)ccc2[nH]c1=O [compound 1058] | 1.92 | 29.21 | 6.86 | – | – | – | –
Cc1nccc2[nH]c(=O)c(CC(=O)N[C@H](C)c3ccncc3)c(C)c12 (single isomer, unassigned) [compound 333] | – | – | – | 100.00 | 100.00 | 100.00 | –
Cc1nccc2[nH]c(=O)c(CC(=O)N[C@H](C)c3cccc(O)n3)c(C)c12 (single isomer, unassigned) [compound 297] | – | – | – | 100.00 | 100.00 | 100.00 | –
Cc1nccc2[nH]c(=O)c(CC(=O)N[C@H](C)c3cccc(O)c3)c(C)c12 (single isomer, unassigned) [compound 330] | – | – | – | 100.00 | 100.00 | 100.00 | –
Cc1c(CC(=O)N[C@@H](C)c2ncc(C#N)cc2F)c(=O)[nH]c2ccnc(C(F)(F)F)c12 (single isomer, unassigned) [compound 227] | – | – | – | 0.09 | 0.07 | 0.62 | –
Cc1c(CC(=O)N[C@@H](C)c2ncc(C#N)cc2F)c(=O)[nH]c2ccc(F)c(Cl)c12 (single isomer, unassigned) [compound 2052] | 0.04 | 0.08 | 0.09 | – | – | – | –
Cc1c(C2(C(=O)N[C@H](C)c3nccc(C#N)n3)CC2)c(=O)[nH]c2ccc(F)c(F)c12 (single isomer, unassigned) [compound 2509] | – | – | – | – | – | – | Atrial EC25 [1, 5]: 100.00‡ μM; Skeletal EC25 [2, 5]: 94.41‡ μM; Ventricular EC25 [3, 5]: 77.92‡ μM
Cc1nccc2[nH]c(=O)c([C@@H](C)C(=O)N[C@@H](C)c3ncc(C#N)cc3F)c(C)c12 (single isomer, unassigned) [compound 193] | – | – | – | 0.47 | 0.75 | 5.94 | –

Structure (SMILES) | Atrial EC25 ([1]; Y75 value (no ‡ mark)) [µM] | Skeletal EC25 ([2]; Y75 value (no ‡ mark)) [µM] | Ventricular EC25 ([3]; Y75 value (no ‡ mark)) [µM] | Atrial EC25 [1, 4] [µM] | Skeletal EC25 ([2]; Y75 value) [µM] | Ventricular EC25 ([3]; Y75 value) [µM] | also measured
Cc1c(CC(=O)N[C@H](C)c2ncc(C#N)cn2)c(=O)[nH]c2cc(F)ccc12 [compound 1040] | 6.01 | 52 | 12 | – | – | – | –
Cc1cccc([C@H](CO)NC(=O)Cc2c(C)c3c(C)nccc3[nH]c2=O)c1 (single isomer, unassigned) [compound 313] | – | – | – | 100.00 | 100.00 | 100.00 | –
C[C@H](NC(=O)[C@@H](C)c1cc2nc(C#N)ccc2[nH]c1=O)c1ccc(F)cc1F (single isomer, unassigned) [compound 258] | – | – | – | 100.00 | 100.00 | 63.55 | –
COc1cccc([C@H](C)NC(=O)Cc2c(C)c3c(C)nccc3[nH]c2=O)n1 (single isomer, unassigned) [compound 310] | – | – | – | 100.00 | 100.00 | 100.00 | –
Cc1nccc2[nH]c(=O)c([C@H](C)C(=O)N[C@@H](C)c3ccc(F)cc3F)c(C(F)(F)F)c12 (single isomer, unassigned) [compound 413] | – | – | – | 20.63 | 10.76 | 100.00 | –
C[C@@H](NC(=O)C1(c2cc3c(F)c(F)ccc3[nH]c2=O)CC1)c1ccc(F)cc1F [compound 4813] | 0.37 | 0.91 | 100.00 | – | – | – | –
Cc1c(CC(=O)N[C@@H](C)c2ccc(F)cc2F)c(=O)[nH]c2ccnc(N3CCOCC3)c12 [compound 345] | – | – | – | 10.74 | 1.83 | 51.73 | –
C[C@H](NC(=O)[C@H](C)c1cc2c(F)cccc2[nH]c1=O)c1ccc(F)cc1F (single isomer, unassigned) [compound 103] | 1.13 | 1.64 | 100.00 | – | – | – | –
N#Cc1cnc2c(c1)OC[C@H]2NC(=O)Cc1cc2c(F)c(F)ccc2[nH]c1=O (single isomer, unassigned) [compound 13] | 0.32 | 0.05 | 0.09 | – | – | – | –
Cc1c(CC(=O)N[C@@H](C)c2ccc(F)cc2F)c(=O)[nH]c2ccnc(OCC(F)F)c12 [compound 380] | – | – | – | 0.06 | 0.01 | 0.77 | –
C[C@H](NC(=O)Cc1c(C(F)F)c2c(F)c(F)ccc2[nH]c1=O)c1ccc(F)cc1F [compound 107] | 0.03 | 0.02 | 0.09 | – | – | – | –
COc1ccccc1[C@H](C)NC(=O)Cc1c(C)c2c(C)nccc2[nH]c1=O (single isomer, unassigned) [compound 319] | – | – | – | 100.00 | 100.00 | 100.00 | –
Cc1c(CC(=O)N[C@@H](C)c2ncc(C#N)cc2F)c(=O)[nH]c2ccc(C(F)(F)F)nc12 [compound 147] | – | – | – | 0.02 | 0.06 | 0.12 | –
Cc1c(C2(C(=O)N[C@@H](C)c3cccc(C#N)n3)CC2)c(=O)[nH]c2ccc(F)c(F)c12 (single isomer, unassigned) [compound 2548] | 45.39 | – | 100.00 | – | – | – | Skeletal EC25 [2, 5]: 45.96‡ μM
Cc1c(CC(=O)N[C@@H]2COCc3cc(C#N)cnc32)c(=O)[nH]c2ccc(F)cc12 [compound 1056] | 100.00 | 100 | 100.00 | – | – | – | –
Cc1c(C2(C(=O)N[C@@H](C)c3ncc(C#N)cc3F)CC2)c(=O)[nH]c2cccc(C#N)c12 (single isomer, unassigned) [compound 2542] | 0.24 | 0.32 | 0.40 | – | – | – | –
Cc1cccc([C@@H](CO)NC(=O)Cc2c(C)c3c(C)nccc3[nH]c2=O)c1 (single isomer, unassigned) [compound 294] | – | – | – | 100.00 | 100.00 | 100.00 | –
Cc1c(CC(=O)N[C@H](CO)c2ncc(F)cc2F)c(=O)[nH]c2ccnc(C#N)c12 [compound 261] | – | – | – | 100.00 | 26.68 | 100.00 | –
